Tested on: HepG2 + statin, PCSK9 mRNA qPCR, 24 h
Assay: PCSK9 mRNA change in statin-treated cells, late-stage follow-up, mechanism study for Trib1 inducer project, cell-based, HepG2, RT-PCR, atorvastatin or simvastatin, cherry-pick (AID 1053153)

Compound	fold change
CN1C(=O)c2cc(NC(=O)c3ccc(C(F)(F)F)cc3)ccc2OC[C@@H]2O[C@@H](CC(=O)NC3Cc4ccccc4C3)CC[C@@H]21	10
CN1C(=O)c2cc(NC(=O)c3ccc(C(F)(F)F)cc3)ccc2OC[C@@H]2O[C@H](CC(=O)NC3Cc4ccccc4C3)CC[C@@H]21	2

Source: PubChem BioAssay AID1053153 (Broad Institute, 2014)
